# Marks after values point to notes of the source that are not given here.
# What was measured:
# C. tropicalis = assay: Clinical isolates, CLSI M27-A2 broth microdilution and checkerboard; assay type: cell-based
# HMEC = assay: Mammalian cytotoxicity, MTT reduction
# Paecilomyces lilacinus = assay: Clinical isolates of other fungal species, checkerboard; assay type: cell-based
# Rhizopus arrhizus = assay: as above; assay type: cell-based
# C. tropicalis (750) = assay: MIC and checkerboard synergy with azoles; assay type: cell-based, Candida tropicalis
# Procedure: (§1) For susceptibility studies, overnight cultures of both Candida species are diluted 1:100 in YEPD medium, grown for 4 h at 30° C., counted in a hemocytometer, then diluted to a concentration of 5×10^3 cells/ml. […] Synergy, determined by the checkerboard method, is defined as a decrease in MIC of antifungal agent that is more than additive of the MIC of the histone deacetylase inhibitor and the antifungal agent alone.
# C. parapsilosis (22019) = assay: MIC and checkerboard synergy with azoles; assay type: cell-based, Candida parapsilosis
# Procedure: as §1
# Coccidioides immitis = assay: microbe, parasite or virus in culture; assay type: cell-based
# Histoplasma = assay: microbe, parasite or virus in culture; assay type: cell-based
# C. albicans (ATCC 90028) = assay: MIC80 and checkerboard synergy with antifungal agents; assay type: cell-based, Candida albicans; conditions: for Conc. Cpd 4 for 4-fold decrease: C. albicans; for Cpd 4 Conc for 4-fold synergy: C. albicans (90028)
# C. parapsilosis = assay: Fungicidal activity (CFU counts); assay type: cell-based; conditions: voriconazole with Compound 4, data not shown
# Pseudallescheria boydii = assay: Clinical isolates of other fungal species, checkerboard; assay type: cell-based
# Aspergillus fumigatus = assay: as above; assay type: cell-based
# A. niger = assay: Clinical isolates, CLSI M38-A broth microdilution and checkerboard; assay type: cell-based
# [1] = Paecilomyces lilacinus, *Synergy occurs at ½ MIC of Cpd 4
# [2] = Rhizopus arrhizus, *Synergy occurs at ½ MIC of Cpd 4
smiles,measurement,setting,value
O=C(Cc1ccc(CCCCc2ccccc2)cc1)NO [Cpd 4],Conc. Cpd 4 for 4-fold decrease,C. tropicalis; 4-fold reduction of FLU MIC,0.5 µg/mL
same,VOR/Cpd 4 FIC interpretation,C. tropicalis; Cpd 4 with voriconazole,(S) (S = synergy)
same,MTT HMEC,HMEC,13 µM
same,Synergy with Cpd 4 (strains showing synergy/total strains tested) Itraconazole,Paecilomyces lilacinus; [1],2/3*
same,Synergy with Cpd 4 (strains showing synergy/total strains tested) Voriconazole,Paecilomyces lilacinus; [1],2/3*
same,MIC,"Paecilomyces lilacinus; Purpureocillium lilacinum, Paecilomyces lilacinus clinical isolates, read-out: Cpd 4 MIC",4 µg/mL
same,MIC,"Rhizopus arrhizus; Rhizopus arrhizus clinical isolates, read-out: Cpd 4 MIC",> 8 µg/mL
same,Synergy with Cpd 4 (strains showing synergy/total strains tested) Itraconazole,Rhizopus arrhizus; [2],2/3*
same,Synergy with Cpd 4 (strains showing synergy/total strains tested) Voriconazole,Rhizopus arrhizus; [2],2/3*
same,MIC,"C. tropicalis (750); Candida tropicalis, read-out: Cpd 4 MIC",> 50 µg/mL
same,Cpd 4 Conc for 4-fold synergy,C. tropicalis (750); with itraconazole,0.2 µg/mL
same,Cpd 4 Conc for 4-fold synergy,C. tropicalis (750); with ketoconazole,0.2 µg/mL
same,Cpd 4 Conc for 4-fold synergy,C. tropicalis (750); with voriconazole,0.39 µg/mL
same,MIC,"C. parapsilosis (22019); Lodderomyces parapsilosis, read-out: Cpd 4 MIC",0.39 to 0.78 µg/mL
same,Cpd 4 Conc for 4-fold synergy,C. parapsilosis (22019); with ketoconazole,0.2 µg/mL
same,Cpd 4 Conc for 4-fold synergy,C. parapsilosis (22019); with voriconazole,0.049 µg/mL
same,Synergy with Cpd 4 (strains showing synergy/total strains tested) Voriconazole,Coccidioides immitis,0/3**
same,Synergy with Cpd 4 (strains showing synergy/total strains tested) Itraconazole,Coccidioides immitis; Coccidioides immitis,2/3
same,MIC,"Coccidioides immitis; Coccidioides immitis, read-out: Cpd 4 MIC",0.25 µg/mL
same,Synergy with Cpd 4 (strains showing synergy/total strains tested) Itraconazole,Histoplasma,0/3
same,Synergy with Cpd 4 (strains showing synergy/total strains tested) Voriconazole,Histoplasma,0/3
same,MIC,Histoplasma; read-out: Cpd 4 MIC,1 to 2 µg/mL
same,Conc. Cpd 4 for 4-fold decrease,C. albicans (ATCC 90028); 4-fold decrease of nikkomycin MIC,1.563 µg/mL
same,Conc. Cpd 4 for 4-fold decrease,C. albicans (ATCC 90028); 4-fold decrease of terbinafine MIC,0.78 µg/mL
same,MIC,"C. albicans (ATCC 90028); Candida albicans, ATCC90028, compound alone, C. albicans (ATCC 90028), read-out: MIC80",0.8 µg/mL
same,Cpd 4 Conc for 4-fold synergy,C. albicans (ATCC 90028); with itraconazole,0.024 µg/mL
same,Cpd 4 Conc for 4-fold synergy,C. albicans (ATCC 90028); with voriconazole,0.39 µg/mL
same,increase in voriconazole fungicidal activity,C. parapsilosis,1.1-1.2 fold
same,Synergy with Cpd 4 (strains showing synergy/total strains tested) Itraconazole,Pseudallescheria boydii; Pseudallescheria boydii,0/3
same,Synergy with Cpd 4 (strains showing synergy/total strains tested) Voriconazole,Pseudallescheria boydii; Pseudallescheria boydii,0/3
same,MIC,"Pseudallescheria boydii; Scedosporium boydii, Pseudallescheria boydii clinical isolates, read-out: Cpd 4 MIC",2 µg/mL
same,MIC,"Aspergillus fumigatus; Aspergillus fumigatus clinical isolates, read-out: Cpd 4 MIC",4 to 8 µg/mL
same,Synergy with Cpd 4 (strains showing synergy/total strains tested) Itraconazole,"Aspergillus fumigatus; Aspergillus fumigatus, *Synergy occurs at ½ MIC of Cpd 4",2/3*
same,Synergy with Cpd 4 (strains showing synergy/total strains tested) Voriconazole,"Aspergillus fumigatus; Aspergillus fumigatus, †2-fold synergy obtained",2/3^†
same,ITR/Cpd 4 FIC,A. niger; Cpd 4 with itraconazole,0.5
same,VOR/Cpd 4 FIC,A. niger; Cpd 4 with voriconazole,0.5
same,minimum Compound 4 concentration at which Compound 4 alone inhibited growth (number in brackets),A. niger; ITR checkerboard,4.0 µg/mL
same,minimum Compound 4 concentration at which Compound 4 alone inhibited growth (number in brackets),A. niger; VOR checkerboard,2.0 µg/mL

# Reference: US8759400B2, “Histone deacetylase inhibitors for enhancing activity of antifungal agents” (MethylGene Inc., priority 2005, dated 2014)
